Source: patent US20250228807A1, “TRANEXAMIC CLASS ARGININE AND HISTIDINE MIMICS AS THERAPEUTIC AGENTS” (Tranexamic Technologies, LLC, priority 2022, published 2025)
“Also recorded” adds a separate entry of the source.

Assays:
[1] = test system: MDA-MB 468 triple-negative breast cancer cells; experiment: MTT cell viability assay; type: cell-based; settings: MDA-MB-468, 72 h, relative to TA
Protocol: Effects of compounds on cell viability. MDA-MB 468 triple-negative breast cancer cells were plated at 6,250 cells per well in a 96-well plate and incubated overnight at 37° C. Cell viability was evaluated using the MTT (3-(4,5-dimethylthiazol-2-yl)-2,5-diphenyltetrazolium bromide) assay carried out according to manufacturer's instructions.

[2] = Aqueous solubility / preparation of solutions in PBS buffer; type: physicochemical; settings: for solubility: concentration of solution: PBS buffer
Protocol: Chemical synthesis and solubility. TA was purchased from commercial sources and TA-NAc was prepared straightforwardly through acetylation of TA based on standard practices.
TA-R1-R4 were accessible from their corresponding amino acids through treatment with methylisothiourea hemisulfate. […] Esterification of TA-R1 to produce TA-R1OMe, a novel compound, improved the solubility for preparation of a 2% (w/v) solution in phosphate buffered saline (PBS) buffer (pH=7.4) and biological testing.
The requisite amino acids for synthesis of TA-R3/R4 required multistep synthetic approaches. Briefly, the preparation of TA-R3, a novel compound, began from cis-1,3-cyclohexanedicarboxylic acid and proceeded through eight sequential synthetic steps to afford the product as its HCl salt. Protection/deprotection of the amino group was required to facilitate purification, as was a stepwise oxidation sequence from the alcohol to the carboxylic acid. […] The approach to TA-R4, a known compound, required one additional step to produce the starting dicarboxylic acid, in this case through oxidative cleavage of norbornene. […] All the final compounds were fully characterized by ^1H nuclear magnetic resonance (NMR), ^13C NMR, and high-resolution electrospray ionization mass spectrometry (HRMS-ESI).

[3] = test system: programmed death-ligand 1 (PD-L1); experiment: Immunoblot analysis of treated MDA-MB-468 cells: PD-L1 expression; type: cell-based; settings: high (2%) concentration
Excerpt: (§1) Biochemical evaluation of treatment of breast cancer cells with TA-R2. […] This is important because PD-L1 expression in cancer cells blocks T-cell-based immunity. So, TA-R2 would be predicted to increase anticancer immunity in immunocompetent systems. Histone acetyltransferase (HAT) enzyme assays were used to determine if TA-R2 inhibits p300 activity. […] This fits with the hypothesis that TAs act in part by inhibiting acetyltransferases such as p300/CPB that acetylate histones. No acetylation is observed in controls upon omission of H3/p300 or acetyl coenzyme A (Acetyl CoA).

[4] = target: T1, recombinant p300 (Homo sapiens, UniProt Q09472); experiment: p300 histone acetyltransferase (HAT) enzyme assay; type: biochemical; settings: for p300 acetylation of Histone 3 (H3) in vitro: recombinant p300, Histone H3, tritiated acetyl CoA, TA at 2%
T1 construct: purchased
T1 sequence (Q09472 whole entry, species assumed): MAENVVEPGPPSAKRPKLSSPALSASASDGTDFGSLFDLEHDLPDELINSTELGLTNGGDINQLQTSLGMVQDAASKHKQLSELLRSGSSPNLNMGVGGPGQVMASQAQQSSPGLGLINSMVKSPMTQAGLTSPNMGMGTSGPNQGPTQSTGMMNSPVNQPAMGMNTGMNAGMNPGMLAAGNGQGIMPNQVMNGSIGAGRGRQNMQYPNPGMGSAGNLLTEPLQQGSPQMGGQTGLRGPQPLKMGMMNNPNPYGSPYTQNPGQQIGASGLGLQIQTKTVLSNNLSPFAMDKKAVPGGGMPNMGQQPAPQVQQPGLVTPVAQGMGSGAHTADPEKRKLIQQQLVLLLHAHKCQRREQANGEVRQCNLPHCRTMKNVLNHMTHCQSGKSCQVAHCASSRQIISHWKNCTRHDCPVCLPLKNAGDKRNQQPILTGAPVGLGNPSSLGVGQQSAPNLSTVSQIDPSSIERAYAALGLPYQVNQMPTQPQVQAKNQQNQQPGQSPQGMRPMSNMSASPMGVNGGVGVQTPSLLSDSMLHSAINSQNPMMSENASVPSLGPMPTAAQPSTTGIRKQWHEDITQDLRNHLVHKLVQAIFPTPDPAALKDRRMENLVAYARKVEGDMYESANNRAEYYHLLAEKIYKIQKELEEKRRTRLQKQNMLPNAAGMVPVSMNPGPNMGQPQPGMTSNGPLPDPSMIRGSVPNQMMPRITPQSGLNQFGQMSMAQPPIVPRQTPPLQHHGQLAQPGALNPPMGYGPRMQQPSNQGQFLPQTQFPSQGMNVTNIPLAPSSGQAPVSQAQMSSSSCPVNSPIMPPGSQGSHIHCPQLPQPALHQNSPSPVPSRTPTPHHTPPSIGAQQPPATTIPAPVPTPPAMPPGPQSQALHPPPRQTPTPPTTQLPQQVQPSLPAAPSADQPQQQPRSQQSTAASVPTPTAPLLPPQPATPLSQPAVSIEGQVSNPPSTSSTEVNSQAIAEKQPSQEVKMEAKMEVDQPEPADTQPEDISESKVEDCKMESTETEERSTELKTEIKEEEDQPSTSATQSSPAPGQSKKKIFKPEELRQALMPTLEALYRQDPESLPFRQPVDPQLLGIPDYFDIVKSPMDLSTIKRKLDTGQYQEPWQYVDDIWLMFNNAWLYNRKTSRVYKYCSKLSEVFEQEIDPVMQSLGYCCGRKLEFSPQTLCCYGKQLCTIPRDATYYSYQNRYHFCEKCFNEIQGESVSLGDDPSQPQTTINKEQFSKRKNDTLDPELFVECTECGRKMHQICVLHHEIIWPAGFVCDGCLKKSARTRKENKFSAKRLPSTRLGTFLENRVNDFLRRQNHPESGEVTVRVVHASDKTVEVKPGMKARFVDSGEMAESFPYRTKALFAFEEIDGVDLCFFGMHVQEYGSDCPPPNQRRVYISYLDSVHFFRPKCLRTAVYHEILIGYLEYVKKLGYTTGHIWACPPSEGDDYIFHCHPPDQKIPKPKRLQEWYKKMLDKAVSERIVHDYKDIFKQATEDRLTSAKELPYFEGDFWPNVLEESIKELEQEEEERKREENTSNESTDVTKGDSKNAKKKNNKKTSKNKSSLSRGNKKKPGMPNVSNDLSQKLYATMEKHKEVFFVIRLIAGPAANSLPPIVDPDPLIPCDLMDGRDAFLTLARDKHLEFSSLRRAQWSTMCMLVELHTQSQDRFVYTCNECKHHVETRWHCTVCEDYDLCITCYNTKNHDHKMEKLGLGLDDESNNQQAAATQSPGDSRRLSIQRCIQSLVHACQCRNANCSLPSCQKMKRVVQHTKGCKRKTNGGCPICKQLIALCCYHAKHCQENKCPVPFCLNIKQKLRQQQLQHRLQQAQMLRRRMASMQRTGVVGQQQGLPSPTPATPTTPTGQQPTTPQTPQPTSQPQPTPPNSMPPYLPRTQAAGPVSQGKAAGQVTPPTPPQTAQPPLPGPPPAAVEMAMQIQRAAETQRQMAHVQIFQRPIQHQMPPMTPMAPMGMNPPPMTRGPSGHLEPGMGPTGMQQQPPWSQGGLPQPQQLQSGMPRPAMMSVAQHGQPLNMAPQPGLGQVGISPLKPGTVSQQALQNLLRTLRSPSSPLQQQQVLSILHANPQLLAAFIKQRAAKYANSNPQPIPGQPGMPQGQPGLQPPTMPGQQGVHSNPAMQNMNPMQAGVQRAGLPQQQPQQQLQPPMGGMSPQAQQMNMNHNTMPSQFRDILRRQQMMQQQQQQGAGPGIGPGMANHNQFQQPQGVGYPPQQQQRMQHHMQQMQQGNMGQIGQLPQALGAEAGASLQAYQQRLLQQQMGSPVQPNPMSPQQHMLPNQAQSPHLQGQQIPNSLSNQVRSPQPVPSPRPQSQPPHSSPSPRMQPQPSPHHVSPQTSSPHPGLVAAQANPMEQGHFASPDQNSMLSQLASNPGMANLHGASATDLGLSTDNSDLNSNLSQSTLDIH
Protocol: Inhibition of p300 acetyltransferase activity. p300 enzyme assays were carried out with TA, TA-NAc, and TA-R2 using commercially available recombinant p300, and recombinant, commercial Histone H3 and tritiated acetyl CoA as the substrates. P300 assays were performed in the presence of increasing concentrations of each compound and acetylation of […] was evaluated by scintillation counting of Histone H3 adsorbed to 1 cm×1 cm nitrocellulose squares, after extensive washing of the nitrocellulose squares with 20% trichloroacetic acid.
as §1

[5] = test system: MYC oncogene; experiment: Immunoblot analysis of treated MDA-MB-468 cells: MYC expression; type: cell-based
Excerpt: as §1

solubility: concentration of solution [2]	aqueous solubility (in words) [2]	Structure (SMILES)	fold lower IC50 than TA (cytotoxicity) [1]	PD-L1 expression [3]	also measured
ca. 2%		COC(=O)[C@@H]1CCC[C@H](CNC(=N)N)C1.Cl (relative stereo) [TA-R3-OMe, cis-amino(((3 (methoxycarbonyl)cyclohexyl)methyl)amino)methaniminium chloride]	approximately 10 fold		
	good aqueous solubility	Cl.N=C(N)N[C@H]1CC[C@H](C(=O)O)CC1 [TA-R2, amino(((1r,4r)-4-carboxycyclohexyl)amino)methaniminium chloride]		decreases programmed death-ligand 1 (PD-L1)	histone acetylation at 2% (w/v) compared with TA ([4]; 2% (w/v)): reduced histone acetylation to a greater extent than TA; p300 acetylation of Histone 3 (H3) in vitro [4]: decreases histone acetylation more strongly than the other two compounds; expression of the MYC oncogene at 0.5% ([5]; 0.5%): downregulated MYC; expression of the MYC oncogene at 2% (w/v) ([5]; 2% (w/v), compared with TA): downregulated expression of the MYC oncogene; expression of the MYC oncogene ([5]; compared with TA and TA-NAc at the same concentrations): decreases expression of the MYC oncogene to a greater extent than TA or NAc-TA
ca. 2%	sufficient solubility	N=C(N)NC[C@@H]1CC[C@H](C(=O)O)C1 (relative stereo) [TA-R4, cis-3-(guanidinomethyl)cyclopentane-1-carboxylic acid]			
		NC[C@H]1CC[C@H](C(=O)O)CC1 [TA, Tranexamic acid, reference compound]		do not	p300 acetylation of Histone 3 (H3) in vitro [4]: does not affect
		COC(=O)[C@H]1CC[C@H](CNC(=N)N)CC1.Cl [TA-R1-OMe, amino((((1r,4r)-4-(methoxycarbonyl)cyclohexyl)methyl)amino)methaniminium chloride]	approximately 10 fold		solubility: concentration of solution prepared ([2]; phosphate buffered saline (PBS) buffer (pH=7.4)): 2 % (w/v)
	better aqueous solubility	CC(=O)NCC1CCC(C(=O)[O-])CC1.[Na+] (stereo not drawn) [TA-NAc, reference compound]		do not	
	poor aqueous solubility	N=C(N)NC[C@H]1CC[C@H](C(=O)O)CC1 [TA-R1, trans-4-guanidinomethylcyclohexanecarboxylic acid]			

Structure (SMILES)	solubility: concentration of solution [2]	aqueous solubility (in words) [2]	fold lower IC50 than TA (cytotoxicity) [1]	PD-L1 expression [3]	also measured
Cl.N=C(N)NC[C@H]1CCC[C@@H](C(=O)O)C1 (relative stereo) [TA-R3, cis-amino(((3-carboxycyclohexyl)methyl)amino)methaniminium chloride]	~0.1%	insolubility; also recorded: poor aqueous solubility	approximately 10 fold		
